Assays:
[1] = tested on: Collagen type I alpha 1 (Col1a1); assay: Collagen (Col1a1) expression in Human Oral Fibroblasts, QPCR; format: cell-based; conditions: HOF treated with conditioned media from Oral Keratinocytes containing LPS, CSA, Phenytoin or Folic acid (10 μg/ml), 24 hours; p<0.05
Protocol: (§1) Cell Culture. Normal human oral keratinocytes (NOKSI) and fibroblast (HOF) cells were maintained in Dulbecco […] Eagle's medium (Sigma-Aldrich, St. Louis, MO, USA) supplemented with 10% fetal bovine serum (Atlas Bio-logicals, Fort Collins, CO, USA) and 100 units/mL penicillin and 100 μg/mL streptomycin (LifeTechnologies, Carlsbad, CA, USA). Cells were grown in incubator at 37° C. in a humidified chamber with 5% CO2.
Human Oral Fibroblasts (HOF) cells were seeded in 60 mm plates with a density of 2.5×10^4/cm^2 and treated with condition (CM) media collected from Oral Keratinocytes containing LPS (10 μg/ml), CSA (10 μg/ml), Phenytoin (10 μg/ml), or Folic acid (10 μg/ml) and incubated for 24 hours. The Collagen type I alpha 1 (Col1a1) gene expression was determined by QPCR. HOF cells were treated with rTGF-β, SB-431542 (SB), rTNF-α, or TNF-α inhibitor (TNF-α inh). Quantitative real-time PCR results showing the expression of Col1a1 in HOF cells after the treatment. (p<0.05).

[2] = tested on: TGF-β secreted by HOF cells; assay: TGF-β ELISA in Human Oral Fibroblast cells; format: cell-based; conditions: HOF treated with conditioned media from Oral Keratinocytes
Protocol: as §1
Enzyme linked immunosorbent assay (ELISA). ELISA was conducted with a mouse TNF-α ELISA Kit (PeproTech, USA) and TGF-β Emax ImmunoAssay System (Promega USA) to detect the TNF-α and TGF-β respectively. After normalization of the total cells or tissue protein lysates, 20 μg protein of each sample was used for the detection of TNF-α or TGF-β. ELISA was performed according to the manufacturers' instructions. For TNF-α, 100 ng/100 μl of capture antibody was added to each well of 96 well assay plate and incubated for overnight at room temperature. Blocking buffer of 200 μl per well were added to each well and incubated for 1 hour at room temperature. […] Optical absorbing values were read at 405 and 450 nm and corrected by 650 nm. […] TMB One Solution was added for 15 minutes and the reaction were stopped using 100 μl of 1N hydrochloric acid and the absorbance at 450 nm were recorded on a plate reader. Data were analyzed using excel software. […]

Myd88 = assay: Mice study #2: Myd88 immunoblotting of gingival samples; format: in vivo, C57BL/6 mice; conditions: three mice per group
Protocol: Western blot analysis. Cells were seeded in 60 mm plates with a density of 5×10^5 cells per plate and washed briefly with Dulbecco's phosphate-buffered saline (Gibco, Waltham, MA, USA). Whole cell lysates were prepared using RIPA lysis buffer containing protease inhibitor cocktail (Sigma-Aldrich). Total protein concentration was determined using the BCA reagent (Pierce, Waltham, MA, USA). 20 μg of total protein were resolved on sodium dodecyl sulfate-polyacrylamide gel electrophoresis and transferred to polyvinylidenedifluoride membrane and immunoblotted. The blots were incubated for 1 h in 1% bovine serum albumin (BSA) (Sigma-Aldrich) to block the non-specific bindings followed by over-night incubation in primary antibodies (MyD88 and pP65 from Cell Signaling Technology, and human LITAF ThermoFisher Sigma) at 4° C. on shaker. Next day, blots were washed for three times (10 min each) in Tris-buffered saline containing 1% Tween20 (TBST) followed by incubation with secondary antibody (Goat anti-rabbit IgG HRP) with 1:10,000 dilution for 1 h. […] The band intensities were quantified using software ImageJ (NIH, USA) and relative protein levels were normalized by β-actin (Cell Signaling). […] The band intensities were measured by the software ImageJ (NIH, USA), and relative protein levels were normalized by β-actin.

SMILES: Nc1nc2ncc(CNc3ccc(C(=O)N[C@@H](CCC(=O)O)C(=O)O)cc3)nc2c(=O)[nH]1 [folic acid]
- Collagen type I alpha 1 (Col1a1) gene expression [1]: reduces the collagen expression
- amount of TGF-β secreted by HOF cells [2]: reduce TGF-β expression
- Myd88 expression, disease group relative to control and folic acid treatment group (Myd88): higher Myd88 expressions compared to the control and treatment group

— patent US20260000496A1, “MATERIALS AND METHODS FOR DRUG-INDUCED GINGIVAL OVERGROWTH” (Optimed Technology, Inc., priority 2019, published 2026)
